We go through eight compounds from PubChem BioAssay (NCI).

Where “and” joins values, the source holds several entries; their conditions need not be identical. Equal values may be shown once.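 Protocol summary: plate cells (96-well), add compound at 5 concentrations, incubate 48 h, interpolate endpoints linearly. Here, GI50 denotes the concentration required for 50% inhibition of growth. TGI marks complete inhibition of growth.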

Some test systems named below: ACHN renal; K-562 leukemia; KM12 colon; SK-MEL-28 melanoma; EKVX NSCLC; M14 melanoma; CCRF-CEM leukemia; SK-MEL-2 melanoma; HCT-116 colon; DU-145 prostate.
Common to all, as to experiment: NCI tumour cell line growth inhibition, 48 h

`COc1cc2c(cc1OCCN1C(=O)c3cccc4cccc(c34)C1=O)N=C[C@@H]1CCCN1C2=O`: the GI50 with ACHN renal is 19 µM; in the assay with K-562 leukemia, 7.63 µM; with KM12 colon it was 12.4 µM; with SK-MEL-28 melanoma it was 19.7 µM; in the assay with EKVX NSCLC, 13.8 µM; in the assay on M14 melanoma, 22.5 µM. The GI50 was 1.44 µM with CCRF-CEM leukemia, 16.6 µM in the assay with SK-MEL-2 melanoma, 20.6 µM in the assay on HCT-116 colon and 18.1 µM in the assay with DU-145 prostate. In addition, the TGI in the assay with ACHN renal was 14.9 µM and 33 µM; in the assay with K-562 leukemia, 10.9 µM and > 100 µM; in the assay on KM12 colon, 50 µM and 24.9 µM; in the assay on SK-MEL-28 melanoma, 16.3 µM and 49.3 µM; with EKVX NSCLC, 18.3 µM and 26.7 µM; in the assay with M14 melanoma it was 15.7 µM and 70.6 µM. Besides, the TGI in the assay on CCRF-CEM leukemia was 23.1 µM and 19.5 µM; with SK-MEL-2 melanoma, 14.5 µM and 32.7 µM; in the assay on HCT-116 colon, 14.5 µM and 45.4 µM; in the assay on DU-145 prostate it was 17.4 µM and 35.9 µM.
Consider `Cc1ccc2nc(NC(=O)CSC(=S)N3CCN(Cc4ccccc4)CC3)sc2c1`, for which the GI50 in the assay on ACHN renal is more than 100 µM; in the assay with K-562 leukemia it was more than 100 µM; in the assay on KM12 colon it was more than 94.3 µM; in the assay with SK-MEL-28 melanoma, more than 100 µM; in the assay on EKVX NSCLC, more than 100 µM; with M14 melanoma it was more than 100 µM. Further, the GI50 was more than 100 µM in the assay with CCRF-CEM leukemia, more than 100 µM in the assay with SK-MEL-2 melanoma, more than 96.7 µM with HCT-116 colon and more than 100 µM with DU-145 prostate. Further, the TGI in the assay with ACHN renal, with K-562 leukemia, in the assay with KM12 colon, with SK-MEL-28 melanoma, with EKVX NSCLC and in the assay on M14 melanoma was more than 100 µM each time. Further, the TGI with CCRF-CEM leukemia, in the assay with SK-MEL-2 melanoma, in the assay on HCT-116 colon and in the assay with DU-145 prostate was more than 100 µM throughout.
Take `Cc1cc(C)c(S(=O)(=O)Oc2ccccc2[N+](=O)[O-])c(C)c1`: the GI50 was 5.56 µM in the assay with ACHN renal; 0.398 µM in the assay with K-562 leukemia; 0.803 µM in the assay with KM12 colon; 5.46 µM in the assay with SK-MEL-28 melanoma; 3.26 µM in the assay on EKVX NSCLC; 0.976 µM in the assay on M14 melanoma. The GI50 is 2.15 µM in the assay on CCRF-CEM leukemia, 3.41 µM with SK-MEL-2 melanoma, 1.44 µM in the assay on HCT-116 colon and 2.38 µM in the assay on DU-145 prostate. The TGI with ACHN renal is more than 100 µM; with K-562 leukemia, more than 100 µM; in the assay on KM12 colon, more than 100 µM; with SK-MEL-28 melanoma, more than 100 µM; with EKVX NSCLC it was more than 100 µM; in the assay with M14 melanoma, more than 26.6 µM. For the same compound, the TGI in the assay with CCRF-CEM leukemia was more than 100 µM; with SK-MEL-2 melanoma, more than 100 µM; in the assay on HCT-116 colon, more than 100 µM; in the assay on DU-145 prostate, more than 31.5 µM.
In the case of `CCCCCCCCCCCCCCCC[N+](C)(C)C`, the GI50 was 0.332 µM and 1.44 µM with ACHN renal; 0.163 µM and 1.17 µM in the assay on K-562 leukemia; 1.36 µM in the assay on KM12 colon; 0.482 µM and 2.24 µM with SK-MEL-28 melanoma; 0.577 µM and 1.59 µM in the assay on EKVX NSCLC; 1.17 µM in the assay on M14 melanoma. Further, the GI50 was 0.656 µM in the assay with CCRF-CEM leukemia; 0.314 µM with SK-MEL-2 melanoma; 0.258 µM and 1.01 µM in the assay with HCT-116 colon; 0.233 µM and 1.4 µM with DU-145 prostate. For the same compound, the TGI in the assay with ACHN renal was 1.61 µM and 4.03 µM; with K-562 leukemia it was 1.1 µM and 2.83 µM; in the assay on KM12 colon it was 2.79 µM; in the assay with SK-MEL-28 melanoma it was 1.72 µM and 6.88 µM; in the assay on EKVX NSCLC, 3.17 µM and 4.28 µM; in the assay with M14 melanoma it was 2.86 µM. Further, the TGI was 2.44 µM in the assay with CCRF-CEM leukemia; 1.17 µM with SK-MEL-2 melanoma; 1.04 µM and 2.57 µM in the assay on HCT-116 colon; 0.665 µM and 2.91 µM in the assay with DU-145 prostate.
For `S=C1SC2(CCCCCC2)NC2=C1CCCCC2`, the TGI with ACHN renal is more than 100 µM; with K-562 leukemia it was more than 100 µM; with KM12 colon, more than 100 µM; with SK-MEL-28 melanoma, more than 100 µM; in the assay with EKVX NSCLC, 44.2 µM; in the assay on M14 melanoma, more than 100 µM. For the same compound, the TGI in the assay on CCRF-CEM leukemia is more than 100 µM; with SK-MEL-2 melanoma, 47.4 µM; in the assay on HCT-116 colon, more than 100 µM; in the assay with DU-145 prostate, more than 100 µM.
As to `COc1ccc(-c2ccc(=O)oc2-c2cc(OC)c(OC)c(OC)c2)cc1O`, the GI50 with ACHN renal is 0.135 µM; with K-562 leukemia, less than 0.0229 µM; in the assay with KM12 colon, less than 0.0248 µM; in the assay with SK-MEL-28 melanoma it was 1.64 µM; with EKVX NSCLC, 0.0807 µM; with M14 melanoma it was 0.018 µM. Also, the GI50 in the assay with CCRF-CEM leukemia is 0.0219 µM; with SK-MEL-2 melanoma, 0.315 µM; with HCT-116 colon, 0.0242 µM; in the assay with DU-145 prostate, 0.0297 µM. Also, the TGI in the assay on ACHN renal was more than 73.3 µM; in the assay with K-562 leukemia, more than 100 µM; with KM12 colon it was more than 35.8 µM; with SK-MEL-28 melanoma it was more than 100 µM; in the assay with EKVX NSCLC it was more than 100 µM; in the assay on M14 melanoma it was more than 100 µM. Further, the TGI in the assay with SK-MEL-2 melanoma and in the assay on HCT-116 colon was more than 100 µM throughout.
For `COc1cc2c3c(n(CCCn4cccn4)c(=O)c2cc1OC)-c1cc2c(cc1C3=O)OCO2`, the GI50 in the assay on ACHN renal is 0.396 µM; with K-562 leukemia, 3.51 µM; with KM12 colon, 5.11 µM; in the assay with SK-MEL-28 melanoma it was 5.35 µM; in the assay with EKVX NSCLC it was 8.79 µM; in the assay with M14 melanoma it was 0.461 µM. In addition, the GI50 in the assay with CCRF-CEM leukemia was 0.341 µM; in the assay on SK-MEL-2 melanoma, 59.9 µM; in the assay on HCT-116 colon it was 1.47 µM; in the assay with DU-145 prostate, 0.437 µM. Besides, the TGI was 5.61 µM in the assay on ACHN renal; more than 100 µM in the assay with K-562 leukemia; more than 54.5 µM with KM12 colon; more than 100 µM in the assay on SK-MEL-28 melanoma; more than 53.1 µM in the assay with EKVX NSCLC; 5.07 µM in the assay with M14 melanoma. In addition, the TGI in the assay on CCRF-CEM leukemia is 2.34 µM; in the assay on SK-MEL-2 melanoma, more than 100 µM; in the assay with HCT-116 colon, 15.9 µM; in the assay on DU-145 prostate, 5.57 µM.
Consider `CC(C)NCCCNC1=C(Cl)C(=O)c2ccccc2C1=O`, for which the GI50 was 12.6 µM in the assay with ACHN renal; 2.05 µM with K-562 leukemia; 9.59 µM in the assay with KM12 colon; 2.16 µM in the assay on SK-MEL-28 melanoma; 1.4 µM with EKVX NSCLC; 1.86 µM in the assay with M14 melanoma. In addition, the GI50 was 3.56 µM in the assay with CCRF-CEM leukemia, 13.5 µM with SK-MEL-2 melanoma, 2.12 µM with HCT-116 colon and 1.98 µM in the assay with DU-145 prostate. Besides, the TGI in the assay on ACHN renal was 25.8 µM; in the assay on K-562 leukemia, 4.92 µM; in the assay with KM12 colon, 22.3 µM; with SK-MEL-28 melanoma, 3.92 µM; in the assay with EKVX NSCLC it was 2.83 µM; in the assay with M14 melanoma it was 3.49 µM. The TGI in the assay with CCRF-CEM leukemia is 17.6 µM; in the assay with SK-MEL-2 melanoma, 30 µM; in the assay on HCT-116 colon it was 5.28 µM; in the assay on DU-145 prostate, 3.49 µM.
